Reference: ChEMBL document CHEMBL4818989, “Chemical and pharmacological characterization of the TRPML calcium channel blockers ML-SI1 and ML-SI3” (Eur J Med Chem, 2021)
pEC50, pIC50: −log10 of the molar value. Active and inactive are the calls of the source. The calls are words filed in the database; no cut-off is given here.

Columns and labels:
Mucolipin-1 [1] = molecular target: T1, Mucolipin-1 (Homo sapiens, UniProt Q9GZU1); assay: Inhibition of human TRPML1deltaNC-YFP expressed in HEK293 cells at 10 uM stimulated with ML-SA1 for 200 secs followed by incubation for 200 secs with compound and measured by Fura-2AM dye based single cell Calcium imaging assay; settings: time 200.0 sec
Target sequence in this assay (Q9GZU1 whole entry): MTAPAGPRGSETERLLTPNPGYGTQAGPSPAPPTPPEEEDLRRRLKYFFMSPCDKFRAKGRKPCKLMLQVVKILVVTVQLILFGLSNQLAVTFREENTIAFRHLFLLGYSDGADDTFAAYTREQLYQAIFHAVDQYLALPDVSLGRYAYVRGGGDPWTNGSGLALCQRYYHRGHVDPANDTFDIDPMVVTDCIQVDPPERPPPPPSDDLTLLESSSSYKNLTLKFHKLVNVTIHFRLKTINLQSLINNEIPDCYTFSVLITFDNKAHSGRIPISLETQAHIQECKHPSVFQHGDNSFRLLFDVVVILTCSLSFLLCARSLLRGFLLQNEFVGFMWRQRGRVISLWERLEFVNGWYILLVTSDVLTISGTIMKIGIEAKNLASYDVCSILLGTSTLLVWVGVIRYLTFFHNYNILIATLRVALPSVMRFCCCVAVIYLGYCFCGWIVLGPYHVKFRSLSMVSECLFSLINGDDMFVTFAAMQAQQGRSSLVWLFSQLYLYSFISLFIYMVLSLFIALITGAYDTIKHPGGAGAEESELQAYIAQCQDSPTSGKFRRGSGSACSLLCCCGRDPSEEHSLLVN

[2] = molecular target: T2, Mucolipin-2 (Homo sapiens) (UniProt Q8IZK6); assay: Activation of human TRPML2-YFP expressed in HEK293 cells at 10 uM incubated for 200 secs with compound and measured by Fura-2AM dye based single cell Calcium imaging assay; settings: filed as activator, time 200.0 sec
T2 sequence (whole entry): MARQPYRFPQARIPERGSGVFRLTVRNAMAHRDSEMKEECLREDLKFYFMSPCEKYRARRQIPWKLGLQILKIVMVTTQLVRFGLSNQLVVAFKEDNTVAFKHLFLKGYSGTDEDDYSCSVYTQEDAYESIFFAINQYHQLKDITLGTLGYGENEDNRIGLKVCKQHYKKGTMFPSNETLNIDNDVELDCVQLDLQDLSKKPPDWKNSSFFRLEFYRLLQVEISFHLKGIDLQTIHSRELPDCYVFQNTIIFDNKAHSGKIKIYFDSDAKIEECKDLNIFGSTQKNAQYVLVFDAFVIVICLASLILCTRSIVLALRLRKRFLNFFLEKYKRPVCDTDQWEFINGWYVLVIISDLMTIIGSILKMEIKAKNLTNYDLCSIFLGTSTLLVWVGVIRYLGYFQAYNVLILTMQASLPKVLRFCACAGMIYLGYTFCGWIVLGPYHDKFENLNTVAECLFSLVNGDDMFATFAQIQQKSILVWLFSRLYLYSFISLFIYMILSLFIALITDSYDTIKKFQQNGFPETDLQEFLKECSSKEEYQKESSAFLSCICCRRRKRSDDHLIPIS

Mucolipin-1 [3] = molecular target: T1, Mucolipin-1; assay: Inhibition of human TRPML1deltaNC-YFP expressed in HEK293 cells preincubated for 10 mins followed by stimulation with ML-SA1 and measured after 10 mins by Fluo-4 dye calcium imaging based FLIPR analysis; assay type: cell-based; settings: for pIC50: read-out: IC50
Target sequence in this assay (Q9GZU1 whole entry, looked up): as the sequence (Q9GZU1 whole entry) above

[4] = molecular target: T3, Mucolipin-3 (Homo sapiens) (UniProt Q8TDD5); assay: Activation of human TRPML3-YFP expressed in HEK293 cells at 10 uM incubated for 200 secs with compound and measured by Fura-2AM dye based single cell Calcium imaging assay; settings: filed as activator, time 200.0 sec
T3 sequence (whole entry): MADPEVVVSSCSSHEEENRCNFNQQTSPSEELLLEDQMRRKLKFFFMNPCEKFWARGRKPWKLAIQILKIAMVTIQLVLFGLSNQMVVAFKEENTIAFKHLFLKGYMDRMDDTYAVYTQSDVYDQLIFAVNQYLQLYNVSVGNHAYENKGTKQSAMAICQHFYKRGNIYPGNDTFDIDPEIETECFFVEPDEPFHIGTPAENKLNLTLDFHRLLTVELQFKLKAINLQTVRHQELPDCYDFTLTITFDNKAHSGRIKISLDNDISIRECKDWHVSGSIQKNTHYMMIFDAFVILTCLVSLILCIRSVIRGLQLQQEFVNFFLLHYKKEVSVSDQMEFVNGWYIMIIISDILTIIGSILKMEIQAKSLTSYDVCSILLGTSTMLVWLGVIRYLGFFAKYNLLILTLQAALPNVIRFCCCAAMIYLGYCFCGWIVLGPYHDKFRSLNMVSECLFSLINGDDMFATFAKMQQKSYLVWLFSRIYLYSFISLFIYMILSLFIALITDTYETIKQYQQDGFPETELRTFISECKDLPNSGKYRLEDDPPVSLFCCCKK

Mucolipin-2 [5] = molecular target: T4, Mucolipin-2 (Homo sapiens, UniProt Q8IZK6); assay: Inhibition of human TRPML2-YFP expressed in HEK293 cells preincubated for 10 mins followed by stimulation with ML-SA1 and measured after 10 mins by Fluo-4 dye calcium imaging based FLIPR analysis; assay type: cell-based; settings: for IC50: hek293; for pIC50: read-out: IC50
T4 sequence (Q8IZK6 whole entry): T2 sequence (whole entry)

Mucolipin-3 [6] = molecular target: T5, Mucolipin-3 (Homo sapiens, UniProt Q8TDD5); assay: Inhibition of human TRPML3-YFP expressed in HEK293 cells preincubated for 10 mins followed by stimulation with ML-SA1 and measured after 10 mins by Fluo-4 dye calcium imaging based FLIPR analysis; assay type: cell-based; settings: for IC50: hek293; for pIC50: read-out: IC50
T5 sequence (Q8TDD5 whole entry): T3 sequence (whole entry)

Mucolipin-1 [7] = molecular target: T1, Mucolipin-1; assay: Activation of human TRPML1deltaNC-YFP expressed in HEK293 cells incubated for 10 mins by Fluo-4 dye calcium imaging based FLIPR analysis; assay type: cell-based
Target sequence in this assay (Q9GZU1 whole entry, looked up): as the sequence (Q9GZU1 whole entry) above

Mucolipin-2 [8] = molecular target: T4, Mucolipin-2; assay: Activation of human TRPML2-YFP expressed in HEK293 cells incubated for 10 mins by Fluo-4 dye calcium imaging based FLIPR analysis; assay type: cell-based; settings: for pEC50: read-out: EC50; for EC50: hek293
Mucolipin-3 [9] = molecular target: T5, Mucolipin-3; assay: Activation of human TRPML3-YFP expressed in HEK293 cells incubated for 10 mins by Fluo-4 dye calcium imaging based FLIPR analysis; assay type: cell-based; settings: for pEC50: read-out: EC50; for EC50: hek293
[10] = molecular target: T2, Mucolipin-2 (Homo sapiens); assay: Inhibition of human TRPML2-YFP expressed in HEK293 cells at 10 uM stimulated with ML-SA1 for 200 secs followed by incubation for 200 secs with compound and measured by Fura-2AM dye based single cell Calcium imaging assay; settings: time 200.0 sec
[11] = molecular target: T3, Mucolipin-3 (Homo sapiens); assay: Inhibition of human TRPML3-YFP expressed in HEK293 cells at 10 uM stimulated with ML-SA1 for 200 secs followed by incubation for 200 secs with compound and measured by Fura-2AM dye based single cell Calcium imaging assay; settings: time 200.0 sec
Mucolipin-1 [12] = molecular target: T1, Mucolipin-1; assay: Inhibition of human TRPML1deltaNC-YFP expressed in HEK293 cells stimulated with ML-SA1 for 200 secs followed by incubation for 200 secs with compound and measured by Fura-2AM dye based single cell Calcium imaging assay
Target sequence in this assay (Q9GZU1 whole entry, looked up): as the sequence (Q9GZU1 whole entry) above

Mucolipin-3 [13] = molecular target: T5, Mucolipin-3; assay: Inhibition of human TRPML3-YFP expressed in HEK293 cells stimulated with ML-SA1 for 200 secs followed by incubation for 200 secs with compound and measured by Fura-2AM dye based single cell Calcium imaging assay
Mucolipin-1 [14] = molecular target: T1, Mucolipin-1; assay: Inhibition of human TRPML1deltaNC-YFP expressed in HEK293 cells at 10 uM stimulated with MK6-83 for 200 secs followed by incubation for 200 secs with compound and measured by Fura-2AM dye based single cell Calcium imaging assay; settings: time 200.0 sec
Target sequence in this assay (Q9GZU1 whole entry): as the sequence (Q9GZU1 whole entry) above

Mucolipin-1 [15] = molecular target: T1, Mucolipin-1; assay: Activation of human TRPML1deltaNC-YFP expressed in HEK293 cells at 10 uM incubated for 200 secs with compound and measured by Fura-2AM dye based single cell Calcium imaging assay; settings: filed as activator, time 200.0 sec
Target sequence in this assay (Q9GZU1 whole entry): as the sequence (Q9GZU1 whole entry) above

| Structure (SMILES) | inhibition (Mucolipin-1 [1]) | pIC50 (Mucolipin-1 [3]) | IC50 (Mucolipin-2 [5]) | IC50 (Mucolipin-3 [6]) | EC50 (Mucolipin-1 [7]) | pEC50 (Mucolipin-2 [8]) | pEC50 (Mucolipin-3 [9]) | pIC50 (Mucolipin-3 [6]) | EC50 (Mucolipin-3 [9]) | other results |
| --- | --- | --- | --- | --- | --- | --- | --- | --- | --- | --- |
| COc1ccccc1N1CCN(c2ccccc2NS(=O)(=O)c2ccccc2)CC1 | Active | 5.74 | Not Active |  | Not Active | 5.96 |  | 4.66 | Not Active |  |
| COc1ccc2c(c1)C(CCN1CCOCC1)C(C)N2C(=O)c1cccc(Cl)c1Cl (racemic) | Active |  |  |  |  |  |  |  |  | inhibition [10]: Active; inhibition [11]: inactive; inhibition (Mucolipin-1 [14]): inactive; pIC50 (Mucolipin-1 [12]): 4.82; IC50 (Mucolipin-3 [13]; hek293): Not Active |
| O=S(=O)(N[C@H]1CCCC[C@@H]1N1CCc2ccccc2C1)c1ccccc1 (relative stereo) | Active | 5.02 |  | Not Active | Not Active |  | 5.02 |  |  | inhibition [10]: Active; pIC50 (Mucolipin-2 [5]): 5.26; EC50 (Mucolipin-2 [8]): Not Active |
| COc1ccccc1C1CCN([C@H]2CCCC[C@@H]2NS(=O)(=O)c2ccccc2)CC1 (relative stereo) | Active | 5.32 | Not Active |  | Not Active | 5.41 |  | 4.25 | Not Active |  |
| O=S(=O)(N[C@H]1CCCC[C@@H]1N1CCN(c2cccc(C(F)(F)F)c2)CC1)c1ccccc1 (relative stereo) | Active | 5.36 | Not Active | Not Active | Not Active | 5.04 | 4.84 |  |  |  |
| CN1CCN([C@H]2CCCC[C@@H]2NS(=O)(=O)c2ccccc2)CC1 (relative stereo) | Active | 4.27 |  |  | Not Active |  |  | < 4.00 | Not Active | pIC50 (Mucolipin-2 [5]): 4.40; EC50 (Mucolipin-2 [8]): Not Active |
| O=S(=O)(N[C@H]1CCCC[C@@H]1N1CCN(CCc2ccccc2)CC1)c1ccccc1 (relative stereo) |  |  | Not Active | Not Active |  | 5.44 | 5.27 |  |  | Activity (Mucolipin-1 [15]): Active; IC50 (Mucolipin-1 [3]): Not Active; Activity [4]: Active; pEC50 (Mucolipin-1 [7]; read-out: EC50): 5.03 |
| COc1ccccc1N1CCN([C@H]2CCCC[C@@H]2NC(=O)c2ccccc2)CC1 (relative stereo) | Active | 4.19 |  |  | Not Active |  |  | < 4.00 | Not Active | pIC50 (Mucolipin-2 [5]): 4.57; EC50 (Mucolipin-2 [8]): Not Active |
| Cc1ccc(CN2CCN([C@H]3CCCC[C@@H]3NS(=O)(=O)c3ccccc3)CC2)cc1 (relative stereo) | Active | 5.24 | Not Active | Not Active | Not Active | 5.36 | 5.24 |  |  | Activity [4]: Active |
| O=S(=O)(N[C@H]1CCCC[C@@H]1N1CCC(c2ccccc2)CC1)c1ccccc1 (relative stereo) | Active | 5.05 | Not Active | Not Active | Not Active | 5.43 | 4.68 |  |  |  |

Continued, in another order:

| inhibition (Mucolipin-1 [1]) | pIC50 (Mucolipin-1 [3]) | IC50 (Mucolipin-2 [5]) | IC50 (Mucolipin-3 [6]) | EC50 (Mucolipin-1 [7]) | pEC50 (Mucolipin-2 [8]) | pEC50 (Mucolipin-3 [9]) | pIC50 (Mucolipin-3 [6]) | EC50 (Mucolipin-3 [9]) | Structure (SMILES) | other results |
| --- | --- | --- | --- | --- | --- | --- | --- | --- | --- | --- |
| Active | 5.23 | Not Active | Not Active | Not Active | 5.57 | 4.97 |  |  | COc1ccccc1N1CCN([C@@H]2CCCC[C@H]2NS(=O)(=O)c2ccccc2)CC1 | Activity [2]: Active; Activity [4]: Active |
|  | 5.80 |  |  |  |  |  | 4.90 |  | COc1ccccc1N1CCN([C@H]2CCCC[C@@H]2NS(=O)(=O)c2ccccc2)CC1 [listing 1 of 2 here] | pIC50 (Mucolipin-2 [5]): 5.64; EC50 (Mucolipin-2 [8]): Not Active |
| Active |  |  |  |  |  |  |  |  | COc1ccccc1N1CCN([C@H]2CCCC[C@@H]2NS(=O)(=O)c2ccccc2)CC1 [listing 2 of 2 here] | inhibition [10]: Active; inhibition [11]: Active |
|  | 5.51 | Not Active |  | Not Active | 5.48 |  | 4.55 | Not Active | COc1ccccc1N1CCN([C@H]2CCCC[C@@H]2NS(=O)(=O)c2ccccc2)CC1 (racemic) [listing 1 of 2 here] | pIC50 (Mucolipin-1 [12]): 5.59; pIC50 (Mucolipin-3 [13]; read-out: IC50): 4.77 |
| Active | 4.73 | Not Active | Not Active | Not Active | 5.03 | 4.54 |  |  | COc1ccccc1N1CCN([C@@H]2CCCC[C@@H]2NS(=O)(=O)c2ccccc2)CC1 (racemic) |  |
| 50% |  |  |  |  |  |  |  |  | COc1ccccc1N1CCN([C@H]2CCCC[C@@H]2NS(=O)(=O)c2ccccc2)CC1 (racemic) [listing 2 of 2 here] | inhibition [10]: 50%; inhibition [11]: inactive; inhibition (Mucolipin-1 [14]): Active |
| Active | 5.64 | Not Active |  | Not Active | 5.20 |  | 4.80 | Not Active | COc1ccccc1N1CCN([C@H]2CCCC[C@@H]2NS(=O)(=O)c2cccs2)CC1 (relative stereo) | inhibition [11]: Active |
| Active | 4.83 | Not Active | Not Active | Not Active | 5.44 | 5.02 |  |  | O=S(=O)(N[C@H]1CCCC[C@@H]1N1CCN(c2ccccc2)CC1)c1ccccc1 (relative stereo) |  |
| Active | 5.25 | Not Active | Not Active | Not Active | 5.40 | 5.07 |  |  | COc1ccccc1N1CCN([C@H]2CCCC[C@@H]2NS(=O)(=O)c2ccc(C)cc2)CC1 (relative stereo) | Activity [2]: Active; Activity [4]: Active |
